# Source: patent US20230167458A1, “FORSKOLIN-INDUCIBLE PROMOTERS AND HYPOXIA-INDUCIBLE PROMOTERS” (ASKLEPIOS BIOPHARMACEUTICAL, INC., priority 2020, published 2023)
# B1: FORCYB1: synthetic forskolin-inducible promoter, SEQ ID NO: 45; 5× cAMPRE and 4× AP1 TFBS and YB-TATA (nucleic acid)
# DNA: TGACGTCACGATTACCATTGACGTCACGATTACCATTGACGTCACGATTACCATTGACGTCACGATTACCATTGACGTCAGCGATTAAGATGACTCAGCGATTAAGATGACTCAGCGATTAAGATGACTCAGCGATTAAGATGACTCAGCGATTAATCCATATGCTCTAGAGGGTATATAATGGGGGCCACTAGTCTACTACCAGAAAGCTTGGTACCGAGCTCGGATCCAGCCACC
# modifications: synthetic forskolin-inducible promoter
# Assays:
# CHO-GS-KSV1 cell line = test: SEAP expression in stably transfected CHO-GS-KSV1, forskolin or NKH477 induction; format: cell-based, chinese hamster; conditions: for optimal inducer concentration to induce expression from RTV-019: stably transfected CHO-GS-KSV1/CHO-K1SV, SEAP after 24 hours, 2, 5, 9, 18 or 32 pM tested
# Experimental: The forskolin-inducible promoters were then tested in a stably transfected CHO-GS-KSV1 cell line.
# • CD-CHO media (Life technologies, CAT #10743029) • Corning 125 mL Polycarbonate Erlenmeyer Flask with Vent Cap (CAT #734-1885). • Gene Pulser® Electroporation Cuvettes, 0.4 cm gap (BioRad, CAT #165-2088) • Gene Pulser Xcell Total System (BioRad, CAT, #1652660) • GS-vector DNA ([…] in 100 μL TE buffer) linearised with Sca1 • Suspension cultures of CHOK1SV GS-KO host cells.
# Cell suspensions of 6×10^5 cells per mL were incubated on an orbital shaker set at 8% CO2, 20% O2, 37° C., 85% relative humidity and 140 rpm overnight. 2.86×10^7 cells were centrifuged at 200 g for 3 minutes. Media was then aspirated and cell pellet resuspended in 2 mL fresh CD-CHO media to obtain a concentration of 1.43×10^7 cells per mL. 700 μL of cell suspension was added to each of two electroporation cuvettes each containing […] of linearised DNA in 100 μL of sterile TE buffer (Thermofisher, 12090015). Each cuvette was electroporated, delivering a single pulse of 300V, […] with resistance to infinity. Immediately after delivery of pulse electroplated cells were transferred to Erlenmeyer 125 mL flask containing 20 mL of CD-CHO media pre-warmed to 37° C. Electroporated cells from two cuvettes are combined into a single 125 mL flask to generate one pool of cells. Cells are cultured on an orbital shaker set at 8% CO2, 20% O2, 37° C., 85% relative humidity and 140 rpm. Cells are transferred to fresh CD-CHO media 24 hours after transfection and cell cultures monitored and given fresh CD-CHO media every 2-4 days. Usually after about 10-14 days cell numbers will be high enough to start passaging.
# The transfected DNA was the pXC-17.4 expression vector (Lonza Biologics plc) where one of the promoter constructs (or a control promoter (CMV-IE) have been cloned upstream of the secreted alkaline phosphatase (SEAP) gene, which had been cloned into the multiple cloning site within the vector expression cassette. Promoters were closed into the pXC-17.4 vector using Gibson assembly. The pXC-17.4 expression vector is designed for making stable cell lines in the CHO-GSK1SV cell line as it contains the […] gene which has been knocked out of the cell line. Therefore, selection of cells in glutamine drop-out medium will select for cells that have stably integrated the plasmid.
# The responsiveness of the RTV-019 promoter to different concentrations of forskolin and […] was tested in the stably transfected CHO-GS-KSV1 cell line. To this end, the stably transfected CHO-GS cells were seeded at 500,000 cells/ml and allowed to grow for 24 hrs. At this point the cells were induced by addition of the respective concentrations of forskolin and NKH477 and SEAP expression was measured as described below after 24 hours.
# The promoter activity and inducibility of FMP-02, FORCYB-001, RTV-017, FORCSV-10, FOR-CMC-009, FLP-01 and RTV-019 were also tested in the stably transfected CHO-GS-KSV1 cell line. To this end, the stably transfected CHO-GS cells were seeded at 500,000 cells/ml and allowed to grow for 24 hrs. At this point the cells were exposed to […] forskolin or […] NKH477 for 24 hours. After this point, the SEAP activity in the medium was assessed as described below.
# SEAP Reporter Gene Assay, chemiluminescent (Roche, CAT #11 779 842 001) was used to measure SEAP activity as per the manufacturer's protocol. All reagents and samples were fully pre-equilibrated at room temperature. Culture supernatant was collected from the stably transfected CHO-GS at the specific time points (0 h and 24 h). The supernatant was diluted 1:4 in dilution buffer and heat treated at 65° C. for 30 minutes. The heat-treated sample was then centrifuged for 30 s at maximum speed. 50 μl of the heat-treated sample was then added to 5 μl of inactivation buffer and incubated for 5 min at room temperature. 50 μl of substrate reagent was then added and incubated for 10 min at room temperature. […]
# [1] = system: Huh7 human liver cell line; test: Luciferase expression from promoters in pAAV vector (with ITRs) in Huh7, forskolin or NKH477 induction; set-up: fold induction with forskolin: dose or concentration left out as unconfirmed
# Experimental: The forskolin-inducible promoters RTV-017, RTV-019 and FORCYB1 were then used to drive expression of luciferase in a pAAV vector in the Huh7 human liver cell line. […] This experiment was performed to investigate the effect of the Inverted Terminal Repeats (ITRs) on the activity of the promoters.
# The cells were seeded, transfected and induced as described above. Luciferase expression was measured as described above. In this experiment, the cells were induced by using 20 pM forskolin or 7.2 pM of the water soluble derivative NKH477.
molecule,measurement,setting,value
C=C[C@@]1(C)CC(=O)[C@]2(O)[C@@]3(C)[C@@H](O)CCC(C)(C)[C@@H]3[C@H](O)[C@H](OC(C)=O)[C@@]2(C)O1 [Forskolin],optimal inducer concentration to induce expression from RTV-019,CHO-GS-KSV1 cell line,about 18 pM
same,optimal inducer concentration to induce expression from RTV-019,CHO-GS-KSV1 cell line; listed as forskolin,18 µM
"C=C[C@@]1(C)CC(=O)[C@]2(O)[C@@]3(C)[C@@H](O)CCC(C)(C)[C@@H]3[C@H](OC(=O)CCN(C)C)[C@H](OC(C)=O)[C@@]2(C)O1.Cl [NKH477, NKH 477]",potency as inducer of the promoters compared with forskolin,"CHO-GS-KSV1 cell line; stable CHO-GS-KSV1, 7.2 µM NKH477 vs 20 µM forskolin",slightly more potent inducer
same,optimal inducer concentration to induce expression from RTV-019,CHO-GS-KSV1 cell line,8 µM
same,optimal inducer concentration to induce expression from RTV-019,CHO-GS-KSV1 cell line; listed as NKH 477,about 8 pM
B1,fold induction with forskolin,[1]; Huh7,65 fold
same,luciferase activity without induction (background),[1]; Huh7,low background activity
same,fold induction with NKH477,"[1]; Huh7, 7.2 pM NKH477",30 fold
same,luciferase activity following induction,"[1]; Huh7, or 7.2 pM NKH477",high activity
